According to US8987170B2, “Succinimide compound” (Sumitomo Chemical Company, Limited, priority 2013, dated 2015):

How the values were obtained:
Type in all cases: cell-based
[1] = test system: Pythium zingiberis; assay: Antibacterial test on Pythium zingiberis (Test Example 1), mycelium growth on PDA medium; conditions: 500 ppm in PDA medium
Method: A predetermined amount of Compound (1) was dissolved in dimethyl sulfoxide, and the resulting solution was added to a potato dextrose agar medium (PDA medium) so as to have a final concentration of 500 ppm. Separately, an agar piece containing bacteria cut out from the bacterial flora peripheral part of Pythium zingiberis pre-cultured in an additive-free PDA medium was inoculated on the PDA medium containing Compound (1), and cultured at 12° C. or 27° C., and then the mycelium growth inhibition rate was measured by the following Expression 1: Mycelium growth inhibition rate(%)=100−(Diameter of bacterial flora in added medium)/(Diameter of bacterial flora in additive-free medium)×100 Expression 1

[2] = test system: Pythium debaryanum; assay: Antibacterial test on Pythium debaryanum, mycelium growth state on PDA medium; conditions: predetermined concentration in PDA medium; cultured at 27° C.
Method: A predetermined amount of Compound (1) was dissolved in dimethyl sulfoxide, and the resulting solution was added to a potato dextrose agar medium (PDA medium) so as to have a final concentration of predetermined concentration. Separately, an agar piece containing bacteria cut out from the bacterial flora peripheral part of Pythium debaryanum pre-cultured in an additive-free PDA medium was inoculated on the PDA medium containing Compound (1), and cultured at 27° C., and then the mycelium growth state was observed.

[3] = test system: Pythium zingiberis; assay: Antibacterial test on Pythium zingiberis (Test Example 2), comparison with comparative compound; conditions: 96 h, 500 ppm in PDA medium, cultured at 27° C. for 4 days, read-out: Mycelium growth inhibition rate (%)
Method: A predetermined amount of Compound (1) was dissolved in dimethyl sulfoxide, and the resulting solution was added to a potato dextrose agar medium (PDA medium) so as to have a final concentration of 500 ppm. Separately, an agar piece containing bacteria cut out from the bacterial flora peripheral part of Pythium zingiberis pre-cultured in an additive-free PDA medium was inoculated on the PDA medium containing Compound (1), and cultured at 27° C. for 4 days, and then the mycelium growth inhibition rate was measured by Expression 1. In addition, the test was conducted in the same manner, using N-[7-fluoro-3,4-dihydro-3-oxo-4-(2-propynyl)-2H-1,4-benzoxazin-6-yl]cyclohex-1-ene-1,2-dicarboxamide as a comparative example, in place of Compound (1).

For `C#CCN1C(=O)COc2cc(F)c(N3C(=O)C4CC=CCC4C3=O)cc21` (stereo not shown) [Compound (1), N-[7-fluoro-3,4-dihydro-3-oxo-4-(2-propynyl)-2H-1,4-benzoxazin-6-yl]cyclohex-4-ene-1,2-dicarboxamide], the inhibition at 500 ppm ([1]; 24 h, culture temperature 27° C., observation Day 1, read-out: Mycelium growth inhibition rate (%)) was 53%, the inhibition at 500 ppm ([1]; 96 h, culture temperature 12° C., observation Day 4, read-out: Mycelium growth inhibition rate (%)) was 100% and the “effect of controlling Pythium debaryanum (mycelium growth state observed)” value [2] was “has an effect of controlling Pythium debaryanum”. For the same compound, the inhibition at 500 ppm [3] was 50%.
